“And” between values parts separate entries of the source, which are not always exact repeats. Equal values may be shown once.
What was measured:
[1] = system: H322 NSCLC cells; assay: Proliferation assay (Cell Titer-Glo) with anti-IGFR1 antibody and a chemotherapeutic agent, H322 NSCLC cells; type: cell-based, human; conditions: H322, Day4, replicates
Procedure: The ability of cells in culture to proliferate when exposed to varying concentrations of the 19D12/15H12 wild-type or 19D12/15H12 LCF/HCA anti-IGFR1 antibody and either paclitaxel, gefitinib, lonafarnib 4-hydroxy tamoxifen or doxorubicin was evaluated in this example.
Cell Preparation. […] The cells were trypsinized, counted and resuspended at a concentration of 25000 cells/ml in 10% HI-FBS (heat-inactivated fetal bovine serum) RPMI medium containing NEAA (non-essential amino acids), L-Glu, MEM Vitamins and PS. 100 ul of cell suspension (2500 cells) was added to each well of a BD Falcon 96 well black, clear bottom TC treated plate. The cells were allowed to attach and spread overnight at 37° C. The 10% RPMI solution was replaced with 100 μl RPMI containing 2% HI-FBS containing NEAA, L-Glu, MEM Vitamins and PS.
Solution Preparation. All assay reagents were prepared in RPMI containing 2% HI-FBS at 20× concentration and serial diluted for a total of 10 test concentrations per treatment. Every test point was prepared in triplicate on separate assay plates.
Reagent 1 and 19D12/15H12 or 19D12/15H12 LCF/HCA were set up individually as dose responses as well as in combination with each other. Cell proliferation was measured on Day4.
Assay. Cell proliferation was measured using the Promega Cell Titer-Glo Luminescent Cell Viability Assay (Promega Corp.; Madison, Wis.). This assay provided a method for determining the number of viable cells in culture based on quantitation of ATP in the culture, which indicates the presence of metabolically active cells.
The assay reagents and assay plates were equilibrated to room temperature and prepared immediately before addition to the assay plates. One volume of assay reagent was added to each well of the assay plate and shaken on an orbital platform for at least ten minutes to allow for equilibration of the ATP reaction and to ensure total lysis of all cells in the assay plate. […] Luminescence was detected on Wallac 420 Plate Reader with stacker.
The units in the tables (proliferation index) are arbitrary and are proportional to the number of viable cells observed in the culture under each respective condition.
In Tables 2-6, “ug” indicates micrograms and “uM” indicates micromolar.

[2] = system: H322 human NSCLC cells; assay: In vivo tumor inhibition assay, NSCLC xenograft model H322; parameters: species or system nude mice; conditions: for Growth: Day 0 to 31
Procedure: Five million H322 human NSCLC cells in Matrigel were inoculated subcutaneously into nude mice. Anti-IGFR antibody 19D12 and/or paclitaxel treatment was initiated when the tumor size reached ˜105-115 mm^3 at day 0. Both 19D12 and paclitaxel were dosed twice per week. Anti-IGFR antibody 19D12 was dosed at 0.5 mg per mouse. Paclitaxel was at 15 mpk. Ten animals per group. Tumor volumes were measured by Labcat.

[3] = Day 0 (treatment start), H322 xenograft in nude mice
[4] = 19D12 0.5 mg per mouse and/or Taxol 15 mpk, twice per week
[5] = Day 31, 19D12 0.5 mg per mouse and/or Taxol 15 mpk, twice per week

Row | Molecule | proliferation index ([1]; Taxol alone 0.00256 ng/mL) | proliferation index ([1]; Taxol alone 0.064 ng/mL) | proliferation index ([1]; Taxol alone 8 ng/mL) | proliferation index ([1]; Taxol alone 40 ng/mL) | proliferation index ([1]; Taxol alone 200 ng/mL) | proliferation index ([1]; Taxol alone 1000 ng/mL) | tumor volume [2, 3] | Growth [2, 4] | % inhibition (tumor growth inhibition) [2, 5] | tumor volume [2, 5]
1 | CC(=O)O[C@H]1C(=O)[C@@]2(C)[C@H]([C@H](OC(=O)c3ccccc3)[C@]3(O)C[C@H](OC(=O)[C@H](O)[C@@H](NC(=O)c4ccccc4)c4ccccc4)C(C)=C1C3(C)C)[C@]1(OC(C)=O)CO[C@@H]1C[C@@H]2O [Taxol, paclitaxel] | 72498 and 78070 and 89290 and 71662 and 72122 and 77618 and 81720 and 80172 and 76744 | 75374 and 83082 and 74926 and 73584 and 75710 and 75356 and 87602 and 75690 and 76350 | 38354 and 33654 and 34598 and 31556 and 36038 and 35906 and 34498 and 53256 and 41418 | 22160 and 25204 and 22624 and 22020 and 22956 and 24152 and 23908 and 24834 and 22462 | 19372 and 23650 and 23668 and 23164 and 23482 and 24314 and 25752 and 23960 and 21420 | 20932 and 26882 and 24582 and 23884 and 23712 and 25890 and 24522 and 24842 and 20306 | 109.54 mm3 | 104.71 | 52% | 214.25 mm3
2 | 19D12: Anti-IGFR antibody 19D12 (antibody, listed as Homo sapiens, V domains shown) VL: MSPSQLIGFLLLWVPASRGEIVLTQSPGTLSVSPGERATLSCRASQSIGSSLHWYQQKPGQAPRLLIKYASQSLSGIPDRFSGSGSGTDFTLTISRLEPEDFAVYYCHQSSRLPHTFGQGTKVEIKRT VH: MEFGLSWVFLVAILKGVQCEVQLVQSGGGLVKPGGSLRLSCAASGFTFSSFAMHWVRQAPGKGLEWISVIDTRGATYYADSVKGRFTISRDNAKNSLYLQMNSLRAEDTAVYYCARLGNFYYGMDVWGQGTTVTVSS | – | – | – | – | – | – | 106.57 mm3 | 66.45 | 75.50% | 173.02 mm3

— patent US8017735B2, “Anti-IGFR1 antibody therapeutic combinations” (Schering Corporation, priority 2003, dated 2011)
